Experimental data: PubChem BioAssay (NCI)
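Interpolation was linear, between the two tested concentrations surrounding the appropriate level; five concentrations were tested over 48 hours in 96-well plates. GI50 is the concentration that inhibits growth by half. At the TGI there is no net growth.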

Key:
Assay in all cases: growth of human tumour cells (NCI), 48 h
SN12C renal = system: SN12C renal
LOX IMVI melanoma = system: LOX IMVI melanoma
MALME-3M melanoma = system: MALME-3M melanoma
HOP-62 NSCLC = system: HOP-62 NSCLC
SF-295 CNS = system: SF-295 CNS
T-47D breast = system: T-47D breast
SK-MEL-5 melanoma = system: SK-MEL-5 melanoma
OVCAR-5 ovarian = system: OVCAR-5 ovarian
NCI-H522 lung = system: NCI-H522 lung
HCC-2998 colon = system: HCC-2998 colon
CAKI-1 renal = system: CAKI-1 renal
SF-539 CNS = system: SF-539 CNS
EKVX NSCLC = system: EKVX NSCLC
NCI/ADR-RES ovarian = system: NCI/ADR-RES ovarian
HS 578T breast = system: HS 578T breast
SW-620 colon = system: SW-620 colon
RPMI-8226 leukemia = system: RPMI-8226 leukemia
MOLT-4 leukemia = system: MOLT-4 leukemia
HL-60(TB) leukemia = system: HL-60(TB) leukemia
MDA-MB-231 breast = system: MDA-MB-231 breast
CCRF-CEM leukemia = system: CCRF-CEM leukemia
K-562 leukemia = system: K-562 leukemia
MDA-MB-468 breast = system: MDA-MB-468 breast
NCI-H226 lung = system: NCI-H226 lung
TK-10 renal = system: TK-10 renal
M14 melanoma = system: M14 melanoma
DU-145 prostate = system: DU-145 prostate
OVCAR-8 ovarian = system: OVCAR-8 ovarian
IGROV1 ovarian = system: IGROV1 ovarian
RXF 393 renal = system: RXF 393 renal
NCI-H23 lung = system: NCI-H23 lung
KM12 colon = system: KM12 colon
HCT-15 colon = system: HCT-15 colon
SR leukemia = system: SR leukemia
MCF7 breast = system: MCF7 breast
ACHN renal = system: ACHN renal
SF-268 CNS = system: SF-268 CNS
SK-MEL-2 melanoma = system: SK-MEL-2 melanoma
HOP-92 NSCLC = system: HOP-92 NSCLC
786-0 renal = system: 786-0 renal
A549 NSCLC = system: A549 NSCLC
U251 CNS = system: U251 CNS
A498 renal = system: A498 renal
OVCAR-4 ovarian = system: OVCAR-4 ovarian
UO-31 renal = system: UO-31 renal
MDA-MB-435 = system: MDA-MB-435
SK-OV-3 ovarian = system: SK-OV-3 ovarian
HT29 colon = system: HT29 colon
HCT-116 colon = system: HCT-116 colon
UACC-257 melanoma = system: UACC-257 melanoma
PC-3 prostate = system: PC-3 prostate
BT-549 breast = system: BT-549 breast
OVCAR-3 ovarian = system: OVCAR-3 ovarian
SNB-19 CNS = system: SNB-19 CNS
SK-MEL-28 melanoma = system: SK-MEL-28 melanoma
COLO 205 colon = system: COLO 205 colon
UACC-62 melanoma = system: UACC-62 melanoma
NCI-H460 lung = system: NCI-H460 lung

Work on COc1ccc(C(=O)/C=C/c2c(F)cccc2Cl)cc1S(N)(=O)=O yielded a GI50 (SN12C renal) of 2.59 µM, a TGI (SN12C renal) of 10.5 µM and a GI50 (LOX IMVI melanoma) of 1.61 µM. It also gave a TGI (LOX IMVI melanoma) of 3.34 µM, a GI50 (MALME-3M melanoma) of 3.99 µM and a TGI (MALME-3M melanoma) of 16.4 µM. For the same compound, the GI50 (HOP-62 NSCLC) was 3.01 µM, the TGI (HOP-62 NSCLC) was 9.42 µM and the GI50 (SF-295 CNS) was 3.1 µM. The TGI (SF-295 CNS) was 11 µM, the GI50 (T-47D breast) was 2.42 µM and the TGI (T-47D breast) was 9.53 µM. The GI50 (SK-MEL-5 melanoma) was 3.06 µM, the TGI (SK-MEL-5 melanoma) was 12.3 µM and the GI50 (OVCAR-5 ovarian) was 3.02 µM. The TGI (OVCAR-5 ovarian) was 11.1 µM, the GI50 (NCI-H522 lung) was 1.67 µM and the TGI (NCI-H522 lung) was 3.51 µM. It also gave a GI50 (HCC-2998 colon) of 2.78 µM, a TGI (HCC-2998 colon) of 10.3 µM and a GI50 (CAKI-1 renal) of 4.07 µM. It also gave a TGI (CAKI-1 renal) of 13.9 µM, a GI50 (SF-539 CNS) of 2.01 µM and a TGI (SF-539 CNS) of 4.22 µM. For the same compound, the GI50 (EKVX NSCLC) was 4.12 µM, the TGI (EKVX NSCLC) was 14.4 µM and the GI50 (NCI/ADR-RES ovarian) was 2.83 µM. For the same compound, the TGI (NCI/ADR-RES ovarian) was 9.24 µM, the GI50 (HS 578T breast) was 6.43 µM and the TGI (HS 578T breast) was > 100 µM. The GI50 (SW-620 colon) was 3.61 µM, the TGI (SW-620 colon) was 20.7 µM and the GI50 (RPMI-8226 leukemia) was 2.57 µM. For the same compound, the TGI (RPMI-8226 leukemia) was 8 µM, the GI50 (MOLT-4 leukemia) was 2.41 µM and the TGI (MOLT-4 leukemia) was 7.58 µM. The GI50 (HL-60(TB) leukemia) was 1.65 µM, the TGI (HL-60(TB) leukemia) was 6.46 µM and the GI50 (MDA-MB-231 breast) was 2.88 µM. The TGI (MDA-MB-231 breast) was 7.71 µM, the GI50 (CCRF-CEM leukemia) was 2.59 µM and the TGI (CCRF-CEM leukemia) was 6.78 µM. It also gave a GI50 (K-562 leukemia) of 2.82 µM, a TGI (K-562 leukemia) of 14.2 µM and a GI50 (MDA-MB-468 breast) of 1.47 µM. For the same compound, the TGI (MDA-MB-468 breast) was 4.12 µM, the GI50 (NCI-H226 lung) was 3.23 µM and the TGI (NCI-H226 lung) was 12.3 µM. It also gave a GI50 (TK-10 renal) of 3.53 µM, a TGI (TK-10 renal) of 9.79 µM and a GI50 (M14 melanoma) of 2.62 µM. For the same compound, the TGI (M14 melanoma) was 10.6 µM, the GI50 (DU-145 prostate) was 3.3 µM and the TGI (DU-145 prostate) was 12.5 µM. The GI50 (OVCAR-8 ovarian) was 3.01 µM, the TGI (OVCAR-8 ovarian) was 12.3 µM and the GI50 (IGROV1 ovarian) was 2.8 µM. The TGI (IGROV1 ovarian) was 10.4 µM, the GI50 (RXF 393 renal) was 1.74 µM and the TGI (RXF 393 renal) was 4.56 µM. For the same compound, the GI50 (NCI-H23 lung) was 3.04 µM, the TGI (NCI-H23 lung) was 10.8 µM and the GI50 (KM12 colon) was 2.59 µM. It also gave a TGI (KM12 colon) of 6.66 µM, a GI50 (HCT-15 colon) of 1.35 µM and a TGI (HCT-15 colon) of 3.38 µM. The GI50 (SR leukemia) was 1.41 µM, the TGI (SR leukemia) was 5.61 µM and the GI50 (MCF7 breast) was 2.19 µM. For the same compound, the TGI (MCF7 breast) was 11.2 µM, the GI50 (ACHN renal) was 2.8 µM and the TGI (ACHN renal) was 8.33 µM. The GI50 (SF-268 CNS) was 3.33 µM, the TGI (SF-268 CNS) was 16.7 µM and the GI50 (SK-MEL-2 melanoma) was 3.96 µM. It also gave a TGI (SK-MEL-2 melanoma) of 16.4 µM, a GI50 (HOP-92 NSCLC) of 3.58 µM and a TGI (HOP-92 NSCLC) of 15.3 µM. The GI50 (786-0 renal) was 2.99 µM, the TGI (786-0 renal) was 10.5 µM and the GI50 (A549 NSCLC) was 2.38 µM. The TGI (A549 NSCLC) was 10.1 µM, the GI50 (U251 CNS) was 1.73 µM and the TGI (U251 CNS) was 3.69 µM. The GI50 (A498 renal) was 15.9 µM, the TGI (A498 renal) was 32 µM and the GI50 (OVCAR-4 ovarian) was 4.13 µM. For the same compound, the TGI (OVCAR-4 ovarian) was 20.5 µM, the GI50 (UO-31 renal) was 2.94 µM and the TGI (UO-31 renal) was 11.9 µM. For the same compound, the GI50 (MDA-MB-435) was 3.39 µM, the TGI (MDA-MB-435) was 15.7 µM and the GI50 (SK-OV-3 ovarian) was 5.36 µM. The TGI (SK-OV-3 ovarian) was 17.1 µM, the GI50 (HT29 colon) was 1.91 µM and the TGI (HT29 colon) was 3.81 µM. The GI50 (HCT-116 colon) was 1.76 µM, the TGI (HCT-116 colon) was 3.78 µM and the GI50 (UACC-257 melanoma) was 2.99 µM. It also gave a TGI (UACC-257 melanoma) of 16.6 µM, a GI50 (PC-3 prostate) of 4.67 µM and a TGI (PC-3 prostate) of 19.7 µM. For the same compound, the GI50 (BT-549 breast) was 2.72 µM, the TGI (BT-549 breast) was 8.63 µM and the GI50 (OVCAR-3 ovarian) was 2.53 µM. It also gave a TGI (OVCAR-3 ovarian) of 8.4 µM, a GI50 (SNB-19 CNS) of 4.24 µM and a TGI (SNB-19 CNS) of 15.2 µM. For the same compound, the GI50 (SK-MEL-28 melanoma) was 3.6 µM, the TGI (SK-MEL-28 melanoma) was 14 µM and the GI50 (COLO 205 colon) was 2.17 µM. The TGI (COLO 205 colon) was 3.95 µM, the GI50 (UACC-62 melanoma) was 2.02 µM and the TGI (UACC-62 melanoma) was 6.55 µM. The GI50 (NCI-H460 lung) was 3.01 µM and the TGI (NCI-H460 lung) was > 100 µM.
